Data published in patent US20040259853A1, “Methods for preventing acute clinical vascular events in a subject” (The Trustees of Columbia University, priority 2000, published 2004).

Columns and labels:
[1] = system: cholesterol trafficking to the endoplasmic reticulum; experiment: Whole-cell cholesterol esterification assay (cholesterol trafficking to ER membranes); assay type: cell-based, mouse
Procedure: Shown is the mean±S.E.M (n=3) of [^3H]cholesteryl ester formed (in cpm/mg cell protein).
Macrophages were incubated for 5 h with DMEM, 0.2% BSA containing 50 μg/ml [^3H]cholesterol-labeled acetyl-LDL alone or containing the indicated compounds. Cellular lipids were extracted twice with 0.5 ml of hexane:isopropanol (3:2, v/v), and the cellular content of [^3H]cholesteryl ester was determined using thin-layer chromatography (49). The lipid-extracted cell monolayer was dissolved in 1 ml 1N NaOH and assayed for protein content using the method of Lowry et al. (50).

[2] = system: cholesterol trafficking to the plasma membrane; experiment: Cholesterol oxidase assay (plasma membrane cholesterol); assay type: cell-based, mouse
Procedure: Shown is the mass (in μg/mg cell protein) of cholesterol (Chol, open bars), which is the cholesterol oxidase-inaccessible pool of intracellular cholesterol, and of cholestenone (CN, striped bars), which is the cholesterol oxidase-accessible pool of plasma membrane cholesterol.
Macrophages were fixed with 1% glutaraldehyde for 10 min and then incubated for 30 min at 37° C. with 2 U/ml Streptomyces cholesterol oxidase. Cellular lipids were extracted twice with 0.5 ml of hexane:isopropanol (3:2).
Cholesterol and.cholestenone mass in these extracts were determined by gas-liquid chromatography using β-sitosterol as an internal standard. The lipid-extracted cell monolayer was dissolved in 1 ml 1N NaOH and assayed for protein content using the method of Lowry et al. (50).

[3] = system: mouse peritoneal macrophages; experiment: Annexin V / propidium iodide cell death assay of macrophages
From the text: Representative fluorescence images and quantitative cell death data from five fields of cells for each condition are shown, expressed as the percent of total cells that stained with annexin V or propidium iodide (mean±S.E.M.; n=5 fields of cells, where each field had ˜200 cells).
Representative fluorescence images and quantitative data are shown (mean±S.E.M.; n=5 fields of cells, where each field had ˜200 cells).
Representative fluorescence images are shown in FIG. 19A, and quantitative apoptosis data from five fields of cells for each condition are shown in FIG. 19B, expressed as the percent of total cells that stained with annexin V or propidium iodide (mean±S.E.M.; n=5 fields of cells, where each field had ˜200 cells).
Peritoneal macrophages from adult female C57BL/6 mice and all mutant mice used in this study were harvested three days after the intraperitoneal injection of 40/g of concanavalin A in 0.5 ml of PBS. The cells were incubated in Dulbecco's modified Eagle's medium (DMEM) supplemented with 10% fetal bovine serum (FBS) and 20% L-cell conditioned medium. The medium was replaced every 24 hours until the macrophages were confluent. On the day of the experiment, the cells were washed three times with warm PBS and incubated as indicated in the Description of Figures for FIGS. 15A-20E. Most importantly, FC-loading of wild type and mutant macrophages was effected by incubating the cells with 100 μg/ml acetyl-LDL in the presence of 10 μg/ml 58035, which inhibits ACAT-mediated cholesterol esterification (11). At the end of the incubation period, the macrophages were assayed for early-mid-stage apoptosis (i.e., phosphatidylserine externalization) by staining with Alexa-488-labeled annexin V and for late-stage apoptosis (i.e., increased membrane permeability) by staining with propidium iodide (PI), as previously described (11). Cells were immediately viewed with an Olympus IX-70 inverted fluorescence microscope, and 3-6 representative fields (˜1000 cells) for each condition were counted for the number of annexin-positive, PI-positive, and total cells.

[4] = system: ABCA1-mediated cholesterol efflux; experiment: 3H-cholesterol efflux to apoA-I from free cholesterol-loaded macrophages; assay type: cell-based, mouse; details: 70 nM; macrophages incubated for a prolonged period with acetyl-LDL without ACAT inhibitor (FIG. 12C)
ACAT enzyme = details: reference 24; cited from earlier work
[5] = system: ABCA1-mediated cholesterol efflux; experiment: 3H-cholesterol efflux to apoA-I from free cholesterol-loaded macrophages; assay type: cell-based, mouse
Procedure: Peritoneal macrophages from C57 mice were incubated for 5 h with 100 μg/ml ^3H-cholesterol-labeled acetyl-LDL in DMEM, 0.2% BSA, in the presence of 10 μg/ml 58035.
Acetyl-LDL (800 μg) was incubated with 10 μCi ^3H-cholesterol for 30 min at 37° C., followed by addition of 8 ml of DMEM, 0.2% BSA. The macrophages were incubated with this medium for 5 h, washed 3 times with PBS, and then incubated with DMEM, 0.2% BSA for 15 min at 37° C. After washing with PBS, the macrophages were incubated with DMEM, 0.2% BSA, containing either 15 μg/ml apoAI or 20 μg/ml HDL2. At the indicated time points, 100 μl of media was removed and centrifuged for 5 min at 14,000 rpm to pellet cellular debris. The radioactivity in this fraction of media was quantitated by liquid scintillation counting. After the last time point, the remainder of the media was removed, and the cells were dissolved in 0.5 ml of 0.1 N NaOH containing 0.5% sodium dodecylsulfate (5 h at room temperature). A 100 μl-aliquot of the cell lysate was counted, and the percent efflux was calculated as (media cpm)[…](cell +media cpm)×100. Total protein in the cell lysate was determined using the Bio-Rad DC protein assay kit. Note that there was no statistical difference in cellular cpm or protein between cholesteryl ester- and free cholesterol-loaded macrophages.

Structure (SMILES): CCN(CC)CCO[C@H]1CC[C@@]2(C)C(=CC[C@@H]3[C@@H]2CC[C@]2(C)C(=O)CC[C@@H]32)C1 [U18666A, 3-β-[2-(diethylamino)ethoxy]androst-5-en-17-one]
- decrease of cholesterol trafficking to the endoplasmic reticulum ([1]; 70 nM (data not shown)): about 90%
- reduction of re-esterification of ingested cholesterol ([1]; low dose (70 nM), 5 h, acetyl-LDL (FIG. 15A)): 90%
- reduction of cholesterol trafficking to the plasma membrane ([2]; 70 nM (data not shown)): about 10%
- accrual of cholesterol in the plasma membrane ([2]; low dose (70 nM), cholesterol oxidase accessibility and cyclodextrin extractability (FIG. 15B)): no effect
- staurosporine-induced macrophage apoptosis ([3]; data not shown): failed to protect
- FC-induced death of Perk−/− macrophages ([3]; low dose (70 nM), 10 h (FIGS. 19A, 19B)): markedly protected
- FC-induced macrophage death ([3]; low dose (70 nM), acetyl-LDL + 58035, 8 h (FIG. 15C)): protected macrophages from the lethal effect of cholesterol loading
- increase of cholesterol efflux to apoA-I [4]: about 30%
- direct inhibitory effect on the ACAT enzyme (ACAT enzyme): no direct inhibitory effect
- concentrations at which efflux was gradually inhibited ([5]; FC-loaded macrophages): greater than 100 nM
- induction of cholesterol efflux to ApoA-1 ([5]; FC-loaded macrophages (FIGS. 11A, 11B)): marked ability to induce cholesterol efflux to ApoA-1
- concentration of peak cholesterol efflux to ApoA-1 ([5]; FC-loaded macrophages, 6 h apoA-I (FIG. 11A)): 70 nM
- restoration of ABCA1-dependent efflux ([5]; optimal low doses, FC-loaded macrophages (FIG. 12A)): restored ABCA1-dependent efflux
